Results: US10646600B2, “HER2 polypeptides useful for imaging and monitoring tumors and cancers” (GE HEALTHCARE LIMITED, priority 2013, dated 2020)
“Also recorded” adds a separate entry of the source.

Legend:
HER2 [1] = settings: report by Smith-Jones and co-workers (36); cited from earlier work
HER2 [2] = test: HER2 expression in SKOV-3 tumors after NVP-AUY922; type: in vivo, mice; settings: 3 doses of 50 mg/kg NVP-AUY922 versus vehicle
Method: For blocking studies, SKOV-3 xenograft bearing mice were administered 500 μg (˜25 mg/kg) cold [^19F]GE-226[SEQ ID NO 1] intravenously (i.v.) through the tail vain 20 minutes before administration of radiotracer. […] To investigate response to HSP90 inhibition, SKOV-3 xenograft-bearing mice were treated with 50 mg/kg NVP-AUY922 or equivalent volume of vehicle (˜5 μL/g body weight; 10% DMSO and 5% Tween-20 in PBS) q.d. i.p. for three days. 24 h after the last treatment, animals were used for PET imaging.
Excised and snap frozen tumor tissue samples were homogenized in RIPA lysis buffer (Sigma-Aldrich) with the PreCellys 24 homogenizer and CK14 beads-containing tubes (two cycles of 25 seconds at 6500 rpm). HER2 expression was determined by ELISA (Calbiochem, Darmstadt, Germany, c-ErbB2/c-Neu Rapid Format ELISA Ki, Cat. Nr: QIA10-1EA) according to manufacturer's instructions.

SKOV-3 xenografts = test: PET-CT imaging and kinetic modeling, SKOV-3 xenografts; type: in vivo, mice
Method: […] […] To investigate response to HSP90 inhibition, SKOV-3 xenograft-bearing mice were treated with 50 mg/kg NVP-AUY922 or equivalent volume of vehicle (˜5 μL/g body weight; 10% DMSO and 5% Tween-20 in PBS) q.d. i.p. for three days. 24 h after the last treatment, animals were used for PET imaging.
Mice were anesthetized through isoflurane inhalation and scanned on a dedicated small animal PET-CT scanner (Siemens Multimodality Inveon, Erlangen, Germany). Low dose CT scans were first acquired (80 kVp, 0.5 mA, 220 degree rotation, 600 ms per degree exposure time, 80 μm reconstruction pixel size) for PET attenuation correction and to obtain an anatomical reference. PET images were acquired following a bolus i.v. injection of approximately 3.7 MBq [^18F]GE-226 in the tail vein. Dynamic emission scans were acquired in list mode format over 60 minutes. The acquired data were sorted into 0.5-mm sinogram bins and 19 time frames for image reconstruction by filtered back projection (4×15 seconds and 4×60 seconds followed by 11×300 seconds). The Siemens Inveon Research Workplace software was used for visualization of radiotracer uptake. 30 to 60-minute cumulative images of the dynamic data were employed to define 3-dimensional (3D) regions of interest (ROI). Arterial input function was estimated by drawing ROIs over the center of the heart cavity using 0.25 to 2 minutes of cumulative images. The count densities were averaged for all ROIs at each time point to obtain time versus radioactivity curves (TAC). Tumor TACs were normalized to injected dose measured by a VDC-304 dose calibrator (Veenstra Instruments, Joure, Netherlands) and normalized uptake was expressed as percentage injected dose per mL tissue (NUV; % ID/mL). Normalized uptake of radiotracer at 60 minutes (NUV60) was used for comparisons. For qualitative image visualization, cumulative images of the dynamic data (30 to 60 min) were also iteratively reconstructed (OSEM3D).
Kinetic analysis of PET data was performed applying a standard two-tissue irreversible compartmental model to fit each tumor TAC with the corresponding image-derived plasma TAC as input function (IF) to estimate K1 (mL/cm^3/min), k2, (1/min) and k3 (1/min) and the blood vascular component Vb (mL blood/mL tissue; unitless). The irreversible uptake rate Ki (mL/cm^3/min) was computed as K1×k3/(k2+k3). To estimate the kinetic parameters the measured tumor TAC (tTAC) was modeled as tTAC(t)=(1−Vb)h(t)⊗IF(t)+VbIF(t) with h(t) indicating the unknown tissue impulse function and ⊗ the convolution operator. The parameter vector p=[K1, k2, k3, Vb] was estimated with the standard Weighted Non-Linear Least Squares (WNLLS) by minimizing the Weighted Residual Sum of Squares (WRSS) function

HER2 [3] = test: Western blot of HER2 protein expression in drug-treated SKOV-3 cells; type: cell-based, human; settings: NVP-AUY922 for 24 h, compared to untreated controls
Method: For all uptake studies in response to drug treatment, 2.5×10^5 SKOV-3 cells were seeded in complete medium 48 h prior to uptake experiments. […] Cells were lysed in RIPA buffer containing protease and phosphatase inhibitors (from Sigma-Aldrich). Equal amounts of protein (20 μg) were resolved on 4-15% mini-protean TGX gels (Biorad, Hercules, Calif.) and transferred to PVDF membranes (Trans-Blot Turbo Transfer Packs, Biorad). Membranes were blocked for 1 h in 5% milk in Tris-buffered saline containing 0.1% v/v tween (TBST, Cell Signaling, Danvers, Mass.) and incubated with antibodies against HER2 (Cell Signal, Cat. Nr: 2165 for visualization of p95HER2 and full-length HER2 bands and Cat. Nr: 4290 for blots where only full-length HER2 is shown), EGFR (Cell Signal, Cat. Nr: 4267) or (3-actin (Abcam, Cambridge, United Kingdom, Cat. Nr: ab6276) overnight at 4° C. Secondary HRP-conjugated mouse and rabbit antibodies (Santa Cruz Biotechnology, Dallas, Tex.) were applied for one h at room temperature. Signals were visualized using Amersham ECL™ Western Blotting Detection Reagent (GE Healthcare) and Amersham Hyper-film (GE Healthcare).

SKOV-3 cells = test: In vitro uptake assay in SKOV-3 cells (blocking, siRNA, drug treatment, specific activity); type: cell-based, human; settings: NVP-AUY922 for 24 h
Method: For siRNA-mediated HER2 knockdown, SKOV-3 cells were transfected with 25 nM scramble control (SCR; Dharmacon, Lafayette, Colo., ON-TARGETplus Non-targeting Pool, Cat. Nr: D-001810-10-05) or HER2-targeting siRNA (Invitrogen ERBB2 Silencer® Select Validated siRNA; Cat. Nr: 4457298) by reverse wet transfection with Lipofectamine RNAiMAX (Invitrogen) according to manufacturer's instructions. 3×10^5 cells were seeded in 12-well plates 48 h prior to uptake experiment. Target knockdown was verified by western blotting on cells that were transfected in parallel.
For all uptake studies in response to drug treatment, 2.5×10^5 SKOV-3 cells were seeded in complete medium 48 h prior to uptake experiments.
For baseline uptake in HER2 positive or negative lineages, 3×10^5 cells were seeded in complete media in 12-well plates (Corning, Tewksbury Mass.) and allowed to recover overnight. Cells were washed twice with serum-free medium and pulsed with 370 KBq in 500 μL serum-free medium for one h. For blocking studies, cells were co-incubated with tracer and 0.5 mg/mL cold unlabeled [^19F]GE-226[SEQ ID NO 1].
Cells were washed with PBS, trypsinized, neutralized with complete medium and centrifuged. The pellet was washed three times with PBS and lysed in 120 μL RIPA buffer (Sigma-Aldrich). The radioactivity of 100 μL lysate was counted on a Packard Cobra II gamma counter (Perkin Elmer). Radioactivity was normalized to applied radioactivity and protein content, which was determined for each sample by BCA assay (Pierce, Rockford, Ill.).

NCI-N87 tumors = test: Fluorescent GE-226 localization versus DAKO HercepTest, NCI-N87 tumors; type: in vivo, mice; settings: 15 mg/kg i.v., tumors excised two h post injection
Method: (§1) The bilateral A431/NCI-N87 model was established by s.c. injection of A431 (1×10^7 cells) and NCI-N87 cells (2×10^6 cells) in 100 μL PBS mixed 1:1 with Matrigel™ in the lower flanks of 4-6 week old male CD-1 nude mice (Charles River Laboratories, Wilmington, Mass.). Tumor volumes were monitored frequently as described above and when they reached 50-100 mm^3 (approximately 3-4 weeks), mice were administered a mixture of Hoechst (˜20 mg/kg) and fluorescein-conjugated-GE226[SEQ ID NO 1] (˜15 mg/kg) in 100 μL PBS i.v. through the tail vein. The tumors were excised 120 minutes post injection, immediately fixed in formalin and embedded in paraffin. Sections were sliced and stored in the dark at −80° C. Immunofluorescent images were acquired at 400× magnification. Adjacent tumor sections were immunohistochemically stained with HercepTest™.
(§2) HER2 protein expression in excised tumors was assessed using the HercepTest™ (Dako, Ely, United Kingdom, Cat. Nr: K5204) according to manufacturer's instructions.
(§3) To examine cellular localization, GE-226[SEQ ID NO 1] was labeled with fluorescein and compared localization and fluorescent intensity in tumor sections with FDA approved DAKO HercepTest™. In contrast to PET experiments, normalization to injected dose is not possible with fluorescent compounds. To eliminate inter-subject variability, experiments were performed in bilateral tumor-bearing mice. […]

A431 tumors = test: Fluorescent GE-226 localization versus DAKO HercepTest, A431 tumors; type: in vivo, mice; settings: 15 mg/kg i.v., tumors excised two h post injection; HER2 negative
Method: as §1, §2, §3

## C=CCNC1=C2C[C@@H](C)C[C@H](OC)[C@H](O)[C@@H](C)/C=C(\C)[C@H](OC(N)=O)[C@@H](OC)/C=C\C=C(/C)C(=O)NC(=CC1=O)C2=O [17-allylaminogeldanamycin]
HER2 [1]
  effect on HER2: degrades HER2

## CCNC(=O)c1noc(-c2cc(C(C)C)c(O)cc2O)c1-c1ccc(CN2CCOCC2)cc1 [NVP-AUY922, reference compound]
HER2 [2]
  effect on HER2 expression in tumors: reduced HER2 expression
SKOV-3 xenografts; 3 doses of 50 mg/kg NVP-AUY922
  effect on tracer uptake in vivo: decreased tracer uptake
SKOV-3 xenografts; three daily doses of 50 mg/kg NVP-AUY922, vehicle 618.4±90.1, P=0.043
  AUC0_60 of [18F]GE-226 after drug: 446.7±42.8 % ID/mL*min
SKOV-3 xenografts; three daily doses of 50 mg/kg NVP-AUY922 i.p., vehicle 13.5±2.1
  NUV60 of [18F]GE-226 after drug: 9.0±0.9 % ID/mL
HER2 [3]
  effect on HER2 protein expression: dose-dependent HER2 degradation; also recorded: dose-dependent decrease of HER2 protein expression
SKOV-3 cells
  effect on tracer uptake in SKOV-3 cells: reduced tracer uptake

## fluorescein-GE-226: GE-226[SEQ ID NO 1] labeled with fluorescein
NCI-N87 tumors
  localization of fluorescent staining versus HER2: co-localized with regions that are HER2 positive
NCI-N87 tumors; listed as fluorescently labeled tracer analogue
  localization of fluorescent staining versus HER2: co-localized with HER2 expression at the cellular level
A431 tumors
  fluorescent staining: negligible
